Results on 16 compounds are retold here after paper PMC6753678, “Fueling Open Innovation for Malaria Transmission-Blocking Drugs: Hundreds of Molecules Targeting Early Parasite Mosquito Stages” (Frontiers in Microbiology, 2019).

Like-named read-outs stand apart in the source and are kept apart here.

Data set [1] relates to HepG2 cells. The data set can be described thus: HepG2 cytotoxicity assay. To be noted: HepG2 cytotoxicity unified across the three screens. An outline of the steps: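 Cells are plated at 2,500 per well on compound-treated plates in MEM containing 10% fetal bovine serum and 1% NEAA, then incubated 48 h at 37°C.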
Data set [2] concerns P. falciparum late stage (stages IV-V) gametocytes. Further details: method as in Almela et al 2016. To be noted: TCAMS screen comparison; ref Almela et al 2016; read-out: Pf GCT ATP IC50; cited from earlier work.
Data set [3] concerns P. falciparum female gametocytes. Further details: method as in Miguel-Blanco et al 2017. To be noted: TCAMS screen comparison; ref Miguel-Blanco et al 2017; read-out: Pf FGAA IC50; cited from earlier work.
Data set [4] concerns P. falciparum late stage (stages IV-V) gametocytes. The data set can be described thus: P. falciparum late stage gametocyte ATP depletion assay (Pf GC-ATP). The note with it: 1: YES; 0: NO.
Data set [5] concerns HepG2 cells. The note with it: cited from earlier work.
Data set [6] relates to P. falciparum female gametocytes. The data set can be described thus: P. falciparum female gametogenesis assay (Pf FGAA). To be noted: 1: YES; 0: NO.
The mark [7] stands for this setting: value reported with the Pf FGAA screen, ref Miguel-Blanco et al 2017.
Setting [8] is: value reported with the Pf GCT ATP screen, ref Almela et al 2016.

As usually defined, the IC50 is the midpoint of a concentration-inhibition curve. As to `COc1cccc(-c2csc(C(=O)NCC3CCN(Cc4ccc(C(C)(C)C)cc4)C3)c2)c1.O=C(O)C(F)(F)F` (stereo not drawn) [TCMDC-134447], in the data set with HepG2 cells [1], the “Unified cytotox” value was determined as 7.64 µM. In addition, the half-maximal inhibitory concentration (IC50) in data set [2] is 230 nM; in data set [3] it was 650 nM. In addition, in data set [4], the “Is compound selective in assay? Pf GC-ATP active?” value is reported as 1 (1: YES). The “HepG2 cytoxicity” value in the data set with HepG2 cells [5] (setting [7]) is given as 5.78 µM; in the data set on HepG2 cells [5] (setting [8]), 9.5 µM. For the same compound, the “Is compound selective in assay? Pf FGAA active?” value in data set [6] is given as 1 (1: YES).
For the compound `Fc1ccc2[nH]c(-c3cccc(-c4ccc(CN5CCC(CCN6CCCCC6)CC5)cc4)c3)nc2c1.O=C(O)C(F)(F)F` [TCMDC-133940], the “Unified cytotox” value in the data set on HepG2 cells [1] was 4.99 µM. Further, the figures for the IC50 in data set [2] and in data set [3] were 430 nM and 1880 nM, respectively. The “Is compound selective in assay? Pf GC-ATP active?” value in data set [4] is listed as 1 (1: YES). The “HepG2 cytoxicity” value in the data set with HepG2 cells [5] (setting [7]) is on record as 4.79 µM; in the data set with HepG2 cells [5] (setting [8]) it was 5.2 µM. Also, the “Is compound selective in assay? Pf FGAA active?” value in data set [6] was 0 (0: NO).
As for `Cl.c1ccc2c(NCCCCCCCCNc3ccnc4ccccc34)ccnc2c1` [TCMDC-137751], in the data set on HepG2 cells [1], the “Unified cytotox” value came to 2.44 µM. In addition, the IC50 in data set [2] is 1080 nM; in data set [3], 1020 nM. Also, the “Is compound selective in assay? Pf GC-ATP active?” value in data set [4] was 0 (0: NO). In addition, the “HepG2 cytoxicity” value in the data set on HepG2 cells [5] (setting [7]) was 1.15 µM; in the data set on HepG2 cells [5] (setting [8]), 3.74 µM. For the same compound, the “Is compound selective in assay? Pf FGAA active?” value in data set [6] was 0 (0: NO).
As for `CCOc1ccccc1CCNC(C)Cc1ccc(C(=O)Nc2ccc(CC(C)NCCc3cccc(Cl)c3)cc2)cc1` (stereo not drawn) [TCMDC-139805], the “Unified cytotox” value in the data set on HepG2 cells [1] came to 3.37 µM. In addition, the half-maximal inhibitory concentration (IC50) in data set [2] is 610 nM; in data set [3], 1390 nM. The “Is compound selective in assay? Pf GC-ATP active?” value in data set [4] is reported as 0 (0: NO). For the same compound, the “HepG2 cytoxicity” value with HepG2 cells [5] (setting [7]) was 3.24 µM; in the data set on HepG2 cells [5] (setting [8]), 3.5 µM. In addition, the “Is compound selective in assay? Pf FGAA active?” value in data set [6] is reported as 0 (0: NO).
For the compound `CC(C)NCc1ccc(OCc2cccc(COc3ccc(CNC(C)C)cc3I)c2)c(I)c1.Cl` [TCMDC-137259], in the data set with HepG2 cells [1], the “Unified cytotox” value is given as 3.27 µM. Also, the IC50 was 210 nM in data set [2] and 1320 nM in data set [3]. The “Is compound selective in assay? Pf GC-ATP active?” value in data set [4] is 1 (1: YES). Also, the entries for the “HepG2 cytoxicity” value with HepG2 cells [5] (setting [7]) and in the data set with HepG2 cells [5] (setting [8]) were 1.64 µM and 4.9 µM, respectively. Besides, the “Is compound selective in assay? Pf FGAA active?” value in data set [6] is given as 0 (0: NO).
For the compound `COc1ccc2c(c1)CC(C)(C)NC2CCCCCCCCC1NC(C)(C)Cc2cc(OC)ccc21.O=C(O)C(=O)O` (stereo not drawn) [TCMDC-137935], the “Unified cytotox” value in the data set with HepG2 cells [1] was determined as 5.47 µM. The 50% inhibitory concentration (IC50) is 790 nM in data set [2] and 1470 nM in data set [3]. In data set [4], the “Is compound selective in assay? Pf GC-ATP active?” value is 0 (0: NO). The “HepG2 cytoxicity” value in the data set with HepG2 cells [5] (setting [7]) is on record as 5.62 µM; in the data set on HepG2 cells [5] (setting [8]), 5.32 µM. In addition, the “Is compound selective in assay? Pf FGAA active?” value in data set [6] is 0 (0: NO).
Turning to `COc1ccc(CNCCCCCCNCc2ccc(OC)c3ccccc23)c2ccccc12.Cl` [TCMDC-137631], in the data set on HepG2 cells [1], the “Unified cytotox” value was 2.44 µM. In addition, the figures for the IC50 in data set [2] and in data set [3] were 510 nM and 720 nM, respectively. In addition, the “Is compound selective in assay? Pf GC-ATP active?” value in data set [4] is 0 (0: NO). The “HepG2 cytoxicity” value is reported as 1.82 µM in the data set on HepG2 cells [5] (setting [7]) and 3.06 µM in the data set on HepG2 cells [5] (setting [8]). For the same compound, the “Is compound selective in assay? Pf FGAA active?” value in data set [6] is given as 0 (0: NO).
`CNC(=S)NN=C(C)c1ccccn1` [TCMDC-123475]: in the data set on HepG2 cells [1], the “Unified cytotox” value is reported as 25.00 µM. Also, the IC50 in data set [2] is 1170 nM; in data set [3] it was 14 nM. Further, in data set [4], the “Is compound selective in assay? Pf GC-ATP active?” value is reported as 1 (1: YES). The “HepG2 cytoxicity” value with HepG2 cells [5] (setting [8]) is recorded as over 25 µM. Moreover, in data set [6], the “Is compound selective in assay? Pf FGAA active?” value is 1 (1: YES).
On to `N=C(/N=C(/NCCCCCCN/C(=N/C(=N)NCc1ccc(Cl)c(Cl)c1)N1CCCCC1)N1CCCCC1)NCc1ccc(Cl)c(Cl)c1` [TCMDC-131816], for which the “Unified cytotox” value in the data set with HepG2 cells [1] came to 43.18 µM. The IC50 in data set [2] was 370 nM; in data set [3] it was 2610 nM. For the same compound, in data set [4], the “Is compound selective in assay? Pf GC-ATP active?” value is reported as 1 (1: YES). Besides, the entries for the “HepG2 cytoxicity” value in the data set with HepG2 cells [5] (setting [7]) and with HepG2 cells [5] (setting [8]) were 43.18 µM and over 25 µM, respectively. Besides, the “Is compound selective in assay? Pf FGAA active?” value in data set [6] was 1 (1: YES).
As to `Nc1c(Cl)cc(C(O)CNCCCCCOCCCc2ccc(O)c3ncccc23)cc1Cl.O=C(O)/C=C/C(=O)O` (stereo not drawn) [TCMDC-132088], in the data set with HepG2 cells [1], the “Unified cytotox” value was found to be 6.14 µM. Moreover, the IC50 in data set [2] was 450 nM; in data set [3], 2100 nM. Further, the “Is compound selective in assay? Pf GC-ATP active?” value in data set [4] is listed as 1 (1: YES). Moreover, the results for the “HepG2 cytoxicity” value with HepG2 cells [5] (setting [7]) and in the data set with HepG2 cells [5] (setting [8]) were 7.76 µM and 4.51 µM, respectively. The “Is compound selective in assay? Pf FGAA active?” value in data set [6] is recorded as 0 (0: NO).
As to `CC(C)(C)c1ccc(CN2CCC(CNC(=O)c3cc(-c4ccccc4Cl)cs3)C2)cc1.O=C(O)C(F)(F)F` (stereo not drawn) [TCMDC-134445], the “Unified cytotox” value in the data set on HepG2 cells [1] was determined as 7.23 µM. For the same compound, the results for the IC50 in data set [2] and in data set [3] were 690 nM and 1010 nM, respectively. For the same compound, in data set [4], the “Is compound selective in assay? Pf GC-ATP active?” value is 1 (1: YES). The results for the “HepG2 cytoxicity” value with HepG2 cells [5] (setting [7]) and with HepG2 cells [5] (setting [8]) were 6.17 µM and 8.3 µM, respectively. For the same compound, the “Is compound selective in assay? Pf FGAA active?” value in data set [6] is on record as 0 (0: NO).
For `CS(=O)(=O)O.FC(F)(F)COc1ccc(CCNCCCCNCCc2ccc(OCC(F)(F)F)c3ccccc23)c2ccccc12` [TCMDC-137282], the “Unified cytotox” value in the data set on HepG2 cells [1] was 2.33 µM. The IC50 in data set [2] is 26.7 nM; in data set [3], 200 nM. Moreover, the “Is compound selective in assay? Pf GC-ATP active?” value in data set [4] is given as 1 (1: YES). Moreover, the entries for the “HepG2 cytoxicity” value with HepG2 cells [5] (setting [7]) and in the data set on HepG2 cells [5] (setting [8]) were 1.66 µM and 3 µM, respectively. Also, in data set [6], the “Is compound selective in assay? Pf FGAA active?” value is 1 (1: YES).
With `COc1ccc(CCNCCCCCCNCCc2ccc(Cl)c3ccccc23)cc1OC.Cl` [TCMDC-131270], the “Unified cytotox” value in the data set with HepG2 cells [1] worked out at 2.68 µM. The IC50 was 130 nM in data set [2] and 580 nM in data set [3]. For the same compound, the “Is compound selective in assay? Pf GC-ATP active?” value in data set [4] was 1 (1: YES). In addition, the “HepG2 cytoxicity” value in the data set on HepG2 cells [5] (setting [7]) is reported as 2.12 µM; in the data set with HepG2 cells [5] (setting [8]), 3.23 µM. The “Is compound selective in assay? Pf FGAA active?” value in data set [6] is recorded as 0 (0: NO).
For `CC1CCCCN1CCCNc1nc(NCc2ccccc2)c2ccccc2n1` (stereo not drawn) [TCMDC-137771], the “Unified cytotox” value with HepG2 cells [1] worked out at 17.35 µM. Moreover, the half-inhibitory concentration (IC50) in data set [2] was 140 nM; in data set [3], 7250 nM. Besides, the “Is compound selective in assay? Pf GC-ATP active?” value in data set [4] was 1 (1: YES). The “HepG2 cytoxicity” value in the data set on HepG2 cells [5] (setting [7]) was 14.62 µM; in the data set with HepG2 cells [5] (setting [8]), 20.07 µM. For the same compound, in data set [6], the “Is compound selective in assay? Pf FGAA active?” value is recorded as 0 (0: NO).
`NCc1ccc(CNCc2cccc(-c3ccc(-c4nc5cc(C(F)(F)F)ccc5[nH]4)cc3)c2)cc1.O=C(O)C(F)(F)F` [TCMDC-132811]: in the data set with HepG2 cells [1], the “Unified cytotox” value is reported as 19.47 µM. The IC50 is 860 nM in data set [2] and 830 nM in data set [3]. Besides, the “Is compound selective in assay? Pf GC-ATP active?” value in data set [4] was 1 (1: YES). Further, the “HepG2 cytoxicity” value is given as 14.65 µM in the data set on HepG2 cells [5] (setting [7]) and 24.3 µM with HepG2 cells [5] (setting [8]). In addition, the “Is compound selective in assay? Pf FGAA active?” value in data set [6] is given as 1 (1: YES).
On to `CC(C)(C)c1ccc(CN2CCC(CNC(=O)c3cc(-c4cccc(Cl)c4)cs3)C2)cc1.O=C(O)C(F)(F)F` (stereo not drawn) [TCMDC-134446], for which the “Unified cytotox” value with HepG2 cells [1] worked out at 9.36 µM. Moreover, the IC50 was 610 nM in data set [2] and 990 nM in data set [3]. In data set [4], the “Is compound selective in assay? Pf GC-ATP active?” value is recorded as 1 (1: YES). The “HepG2 cytoxicity” value in the data set on HepG2 cells [5] (setting [7]) is listed as 7.42 µM; in the data set with HepG2 cells [5] (setting [8]) it was 11.3 µM. In addition, in data set [6], the “Is compound selective in assay? Pf FGAA active?” value is reported as 0 (0: NO).
